Legend:
Assay type in all cases: physicochemical
[1] = Long term solid state stability (double LDPE bags in HDPE container)
Experimental: Long Term Solid State Stability: Form A of a hydrochloride salt of Compound 1 (packaged in double LDPE bags in HDPE container) was stored up to 3 months at 25° C./60% RH, 30° C./65% RH, and 40° C./75% RH storage conditions. […] Therefore, a re-test period of 12 months is proposed when stored at or below 25° C.

[2] = Solid state stability, Accelerated Stability Assessment Program (ASAP)
Experimental: (§1) Solid State Stability: Solid state stability of Form A of a hydrochloride salt of Compound 1 was evaluated using Accelerated Stability Assessment Program (ASAP). Forced degradation storage conditions were used between 60-80° C. and 0-80% RH for up to 2 weeks. A photostress study under 2 times ICH conditions was also conducted in the solid state. The solid samples were analyzed for both chemical and chiral stability. At the end of the study, the crystalline form of the compound was verified by XRPD.

[3] = Solid state photostress study under 2 times ICH conditions
Experimental: as §1

[4] = Dynamic vapor sorption (DVS) hygroscopicity
Experimental: Dynamic vapor sorption (DVS) was measured using DVS advantage (Surface Measurement Systems Ltd). The samples were tested under isotherm (25° C.) at a targeted RH of 0 to 95% full cycle in step mode. For an isotherm test, the chamber temperature is maintained by a water bath at constant 25.0±1.0° C. The relative humidity in the sample chamber is generated by combining different flows of wet and dry nitrogen with variable flow rates. The analysis was performed in 10% RH increments. Sampling rate is 1 sec save data rate is 20 sec. The dm/dt (%) value was set at 0.001 with a dm/dt window of 5 min., a minimum stability duration time of 10 min, and a maximum stage time of 180 min. The sample's equilibrium weight corresponding to each RH was recorded. A sorption isotherm is obtained by plotting equilibrium moisture content versus RH.

[5] = Shear sensitivity (compression, XRPD); conditions: compressed under 700 and 1100 lbs for 1 minute
Experimental: Shear Sensitivity: Form A of a hydrochloride salt of Compound 1 was compressed under 700 and 1100 lbs for 1 minute and analyzed by XRPD.

Cl.O=C1CC[C@H](N2C(=O)c3cccc(NCc4ccc(CN5CC(N6CCOCC6)C5)cc4F)c3C2=O)C(=O)N1
Appearance (Yellow powder) ([1]; 25° C./60% RH, 0 Month): Conforms
Chiral Purity (%) ([1]; 25° C./60% RH, 0 Month): 96.0%
Chromatographic Purity (%) ([1]; 25° C./60% RH, 0 Month): 98.6%
Solid forms (XRPD), consistent with Form A ([1]; 25° C./60% RH, 0 Month): Conforms
Total Related Impurities (%) ([1]; 25° C./60% RH, 0 Month): 1.41%
Water (%) ([1]; 25° C./60% RH, 0 Month): 1.4%
Appearance (Yellow powder) ([1]; 25° C./60% RH, 1 Month): Conforms
Chiral Purity (%) ([1]; 25° C./60% RH, 1 Month): 95.7%
Chromatographic Purity (%) ([1]; 25° C./60% RH, 1 Month): 98.5%
Solid forms (XRPD), consistent with Form A ([1]; 25° C./60% RH, 1 Month): Conforms
Total Related Impurities (%) ([1]; 25° C./60% RH, 1 Month): 1.50%
Water (%) ([1]; 25° C./60% RH, 1 Month): 1.7%
Appearance (Yellow powder) ([1]; 25° C./60% RH, 3 Month): Conforms
Chiral Purity (%) ([1]; 25° C./60% RH, 3 Month): 95.7%
Chromatographic Purity (%) ([1]; 25° C./60% RH, 3 Month): 98.5%
Solid forms (XRPD), consistent with Form A ([1]; 25° C./60% RH, 3 Month): Conforms
Total Related Impurities (%) ([1]; 25° C./60% RH, 3 Month): 1.55%
Water (%) ([1]; 25° C./60% RH, 3 Month): 1.9%
long term solid state stability ([1]; 25° C./60% RH, 30° C./65% RH and 40° C./75% RH for 3 months, double LDPE bags in HDPE container): demonstrate stability
Appearance (Yellow powder) ([1]; 30° C./65% RH, 0 Month): Conforms
Chiral Purity (%) ([1]; 30° C./65% RH, 0 Month): 96.0%
Chromatographic Purity (%) ([1]; 30° C./65% RH, 0 Month): 98.6%
Total Related Impurities (%) ([1]; 30° C./65% RH, 0 Month): 1.41%
Water (%) ([1]; 30° C./65% RH, 0 Month): 1.4%
Appearance (Yellow powder) ([1]; 30° C./65% RH, 1 Month): Conforms
Chiral Purity (%) ([1]; 30° C./65% RH, 1 Month): 94.5%
Chromatographic Purity (%) ([1]; 30° C./65% RH, 1 Month): 98.4%
Total Related Impurities (%) ([1]; 30° C./65% RH, 1 Month): 1.56%
Water (%) ([1]; 30° C./65% RH, 1 Month): 1.9%
Appearance (Yellow powder) ([1]; 30° C./65% RH, 3 Month): Conforms
Chiral Purity (%) ([1]; 30° C./65% RH, 3 Month): 95.8%
Chromatographic Purity (%) ([1]; 30° C./65% RH, 3 Month): 98.4%
Total Related Impurities (%) ([1]; 30° C./65% RH, 3 Month): 1.63%
Water (%) ([1]; 30° C./65% RH, 3 Month): 2.0%
Appearance (Yellow powder) ([1]; 40° C./75% RH, 0 Month): Conforms
Chiral Purity (%) ([1]; 40° C./75% RH, 0 Month): 96.0%
Chromatographic Purity (%) ([1]; 40° C./75% RH, 0 Month): 98.6%
Solid forms (XRPD), consistent with Form A ([1]; 40° C./75% RH, 0 Month): Conforms
Total Related Impurities (%) ([1]; 40° C./75% RH, 0 Month): 1.41%
Water (%) ([1]; 40° C./75% RH, 0 Month): 1.4%
Appearance (Yellow powder) ([1]; 40° C./75% RH, 1 Month): Conforms
Chiral Purity (%) ([1]; 40° C./75% RH, 1 Month): 96.0%
Chromatographic Purity (%) ([1]; 40° C./75% RH, 1 Month): 98.5%
Solid forms (XRPD), consistent with Form A ([1]; 40° C./75% RH, 1 Month): Conforms
Total Related Impurities (%) ([1]; 40° C./75% RH, 1 Month): 1.52%
Water (%) ([1]; 40° C./75% RH, 1 Month): 1.8%
Appearance (Yellow powder) ([1]; 40° C./75% RH, 3 Month): Conforms
Chiral Purity (%) ([1]; 40° C./75% RH, 3 Month): 96.1%
Chromatographic Purity (%) ([1]; 40° C./75% RH, 3 Month): 98.4%
Solid forms (XRPD), consistent with Form A ([1]; 40° C./75% RH, 3 Month): Conforms
Total Related Impurities (%) ([1]; 40° C./75% RH, 3 Month): 1.60%
Water (%) ([1]; 40° C./75% RH, 3 Month): 2.0%
proposed re-test period ([1]; when stored at or below 25° C.): 12 months
changes in assay ([2]; 60-80° C., 0-80% RH, up to 2 weeks, except 80° C./0% RH after 1 week and 2 weeks): < 5%
LC Purity (%) ([2]; 60° C., 50% RH, 7 days): 98.51%
R-isomer % area ([2]; 60° C., 50% RH, 7 days): 1.26 % area
LC Purity (%) ([2]; 60° C., 50% RH, 14 days): 98.47%
R-isomer % area ([2]; 60° C., 50% RH, 14 days): 1.28 % area
LC Purity (%) ([2]; 70° C., 20% RH, 7 days): 98.28%
R-isomer % area ([2]; 70° C., 20% RH, 7 days): 1.26 % area
LC Purity (%) ([2]; 70° C., 20% RH, 14 days): 98.50%
R-isomer % area ([2]; 70° C., 20% RH, 14 days): 1.26 % area
LC Purity (%) ([2]; 70° C., 75% RH, 7 days): 98.48%
R-isomer % area ([2]; 70° C., 75% RH, 7 days): 1.34 % area
LC Purity (%) ([2]; 70° C., 75% RH, 14 days): 98.24%
R-isomer % area ([2]; 70° C., 75% RH, 14 days): 1.49 % area
LC Purity (%) ([2]; 80° C., 0% RH, 7 days): 91.18%
R-isomer % area ([2]; 80° C., 0% RH, 7 days): 1.77 % area
LC Purity (%) ([2]; 80° C., 0% RH, 14 days): 86.98%
R-isomer % area ([2]; 80° C., 0% RH, 14 days): 1.28 % area
LC Purity (%) ([2]; 80° C., 40% RH, 7 days): 98.32%
R-isomer % area ([2]; 80° C., 40% RH, 7 days): 1.77 % area
LC Purity (%) ([2]; 80° C., 40% RH, 14 days): 98.29%
R-isomer % area ([2]; 80° C., 40% RH, 14 days): 1.30 % area
LC Purity (%) ([2]; 80° C., 70% RH, 7 days): 98.43%
R-isomer % area ([2]; 80° C., 70% RH, 7 days): 1.36 % area
LC Purity (%) ([2]; 80° C., 70% RH, 14 days): 98.21%
R-isomer % area ([2]; 80° C., 70% RH, 14 days): 1.45 % area
change of crystalline form (XRPD) ([2]; 80° C./70% RH after 10 days vs control): No change of crystalline form
ASAP stability conclusion ([2]; ASAP stability results): can be considered stable
LC Purity (%) ([2]; Heat/Humidity Control): 98.44%
R-isomer % area ([2]; Heat/Humidity Control): 1.26 % area
maximum change in chiral purity ([2]; across all conditions, maximum under high humidity conditions): ≤ 0.2%
LC Purity (%) ([3]; 2x ICH Photo Stressed): 94.80%
R-isomer % area ([3]; 2x ICH Photo Stressed): 1.17 % area
LC Purity (%) ([3]; Photo Stressed Control): 98.45%
R-isomer % area ([3]; Photo Stressed Control): 1.27 % area
changes in assay ([3]; photostability conditions (2 times ICH), solid state): < 4%
solid form after DVS ([4]; after DVS): remained as Form A
hygroscopicity (DVS) ([4]; below 90% RH): moderate hygroscopic
water uptake expressed as moles of water (DVS) ([4]; corresponding to the about 3.0% w/w uptake): about 1 mole
sorption/desorption reversibility (DVS) ([4]; during two full cycles): almost reversible
moisture picked up (DVS) ([4]; from dry up to 90% RH): ~2.9 % wt
mass increase (DVS) ([4]; increase in RH from about 0% to about 95%): about 3.0%
water uptake (DVS) ([4]; sorption at all humidities, FIG. 7): about 3.0 % w/w
solid form after compression (XRPD) [5]: remained the same
